From patent publication US9296694B2, “Azacyclic compounds” (ACADIA Pharmaceuticals Inc., priority 2000, dated 2016) come the findings set out here.

In general, pIC50 refers to −log10 of the IC50, conventionally taken in molar units. Read a high pIC50 as a low IC50. Usually IC50 stands for the concentration that inhibits the measured activity by half. A high value points to weaker potency.

“Also recorded” adds a separate entry of the source. Where a name gives a salt, the structure may show the parent alone. Where only a bound is given, the exact number is not on record here.

Series [1] has as its system DOI-induced head twitches in mice. As to the kind of experiment: Observation for head twitches in DOI-treated mice. In kind it is in vivo. The settings on record: for MED (minimum effective dose in vivo): statistically significant reduction in head twitching score, DOI-treated mice, 0.1-30 mg/kg subcutaneous injection. An excerpt:
(§1) Instruments) were used for rat experiments (details on startle apparatus and measures, see Male Non-Swiss Albino mice and male Sprague-Dawley rats (Harlan Sprague-Dawley) were housed (4 mice/cage; 2 rats/cage) in rooms with temperature and humidity controlled and water and food (Harlan Teklad) freely available. Mice were kept on a 12-hr light:dark cycle, whereas rats were kept on a 12-hr reverse light:dark cycle. For locomotor and observation experiments in mice, plastic 20×20×30 cm activity cages were equipped with photocell beams (AccuScan Instruments). Startle chambers (San Diego Instruments) were used for rat experiments (for details on startle apparatus and measures, see Mansbach et al., (1988) Psychopharmacology 94:507-14).
Mice were treated with 2.5 mg/kg DOI i.p. Five min later, mice were treated with AC-90179 s.c. and placed into activity cages. Ten min later, mice were observed using a repeated sampling technique. […] Each dose combination was tested in a separate group of animals (n=8) and the experimenter was blind to drug conditions. Head twitch scores were averaged followed by analysis of variance (ANOVA) and post-hoc Dunnett's t-test comparisons.
The effect of various compounds on head twitch behavior in mice treated with DOI was observed as described in Example 139. Animals received 0.1-30 mg/kg of the compound indicated via subcutaneous injection. MED indicates the minimum effective dose at which a statistically significant reduction in head twitching score (described above) was observed. MED=minimum effective dose in vivo.

Another series has as its target T1, 5-HT2A receptor (Homo sapiens, UniProt P28223).
T1 construct: expressed in transfected cells; host or cells: NIH3T3 (mouse fibroblasts), pSI expression vector
As to the kind of experiment: Receptor Selection and Amplification (R-SAT) assay, 5-HT2A inverse agonism. In kind it is cell-based. The settings on record: for Percent Efficacy: compared to ritanserin. The procedure: Briefly, NIH3T3 cells were grown in 96 well tissue culture plates to 70-80% confluence. Cells were transfected for 12-16 hours with plasmid DNAs using superfect (Qiagen Inc.) as per manufacture's protocols. R-SAT's were generally performed with 50 ng/well of receptor and 20 ng/well of Beta-galactosidase plasmid DNA. […] Large-scale transfections, cells were transfected for 12-16 hours, then trypsinized and frozen in DMSO. Frozen cells were later thawed, plated at 10,000-40,000 cells per well of a 96 well plate that contained drug. With both methods, cells were then grown in a humidified atmosphere with 5% ambient CO2 for five days. Media was then removed from the plates and marker gene activity was measured by the addition of the beta-galactosidase substrate ONPG (in PBS with 5% NP-40). […] All data were analyzed using the computer program XLFit (IDBSm).

Series [2] concerns acoustic startle and prepulse inhibition in rats. As to the kind of experiment: Startle testing, prepulse inhibition (PPI) in rats. In kind it is in vivo.
From the text: as §1
Rats were tested and groups (n=10) matched for levels of startle reactivity and prepulse inhibition (PPI; see Mansbach et al., (1988) Psychopharmacology 94:507-14). Two days later, test sessions started and consisted of a 5-min acclimation period with a constant background noise (65 dB), followed by 60 presentations of acoustic stimuli to measure acoustic startle responses. The 60 trials consisted of: twenty two 40-ms presentations of a 120 dB broadband pulse, ten 20-ms presentations of each prepulse intensity (68, 71, 77 dB) 100 ms prior to a 40-msec presentation of a 120 dB broadband pulse, and 8 NOSTIM trials in which no stimuli were delivered in order to assess general motor activation in the rats. Thirty min before testing, rats were treated with sterile water (s.c.), risperidone (1.0 mg/kg, i.p.), or AC-90179 (s.c.). Five min later, rats were administered DOI (0.5 mg/kg, s.c.) or 0.9% saline (s.c.). One-week later, rats were administered the same pretreatment drug or vehicle and crossed over to receive the treatment opposite to that they received the previous week. Startle magnitudes and percent PPI for the three prepulse intensities were calculated as described elsewhere (Bakshi, et al., (1994) J. Pharmacol. Exp. Ther. 271:787-94) and ANOVAs with repeated measures performed.

The test system of series [3] is locomotor activity of mice (dizocilpine- or d-amphetamine-induced hyperactivity, spontaneous activity). As to the kind of experiment: Locomotor activity in mice. The settings on record: for distance traveled (average): i.p., 15 min. Format: in vivo.
From the text: as §1
For hyperactivity experiments, mice were treated with 0.3 mg/kg dizocilpine or 3.0 mg/kg d-amphetamine i.p. 15 min before the session. Five minutes after the pretreatment, mice were treated with AC-90179 s.c. and placed into the activity cages. For spontaneous activity, AC-90179 was administered alone. Locomotor data were collected during a 15 min session without habituation in a lit room. Each dose combination was tested in a separate group of animals (n=8). Distance traveled (cm) was calculated and averaged followed by ANOVA and post-hoc Dunnett's t-test comparisons.

The mark [4] stands for this setting: mice, DOI 2.5 mg/kg i.p., 0.1-30 mg/kg, s.c., 10 min.

T1 sequence (P28223 whole entry): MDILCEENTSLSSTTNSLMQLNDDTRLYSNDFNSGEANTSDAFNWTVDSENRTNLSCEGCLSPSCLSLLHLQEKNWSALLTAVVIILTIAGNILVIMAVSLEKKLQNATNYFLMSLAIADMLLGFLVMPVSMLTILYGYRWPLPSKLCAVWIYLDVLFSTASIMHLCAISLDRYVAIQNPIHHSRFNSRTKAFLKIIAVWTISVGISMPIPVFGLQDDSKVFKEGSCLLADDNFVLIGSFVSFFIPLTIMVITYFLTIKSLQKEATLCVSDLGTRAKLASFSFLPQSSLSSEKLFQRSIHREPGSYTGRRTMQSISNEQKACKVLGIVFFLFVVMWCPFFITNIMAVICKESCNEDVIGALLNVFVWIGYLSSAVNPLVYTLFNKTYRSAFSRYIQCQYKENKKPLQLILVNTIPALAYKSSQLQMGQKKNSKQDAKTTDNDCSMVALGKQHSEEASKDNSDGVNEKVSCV

For the compound `COc1ccc(CC(=O)N(Cc2ccc(Cl)cc2)C2CCN(C(C)C)CC2)cc1` [Compound 42ELH79, 2-(4-Methoxyphenyl)-N-(4-chlorbenzyl)-N-(1-isopropylpiperidin-4-yl) acetamide], in series [1], the “MED (minimum effective dose in vivo)” value is on record as “≦10 mg/kg”. In addition, at 5-HT2A receptor (Table 4 of Example 137), the pIC50 was 8.5 and the “Percent Efficacy” value stood at 110%.
On to `CCN1CCC(N(Cc2ccc(Cl)cc2)C(=O)Cc2ccc(OC)cc2)CC1` [Compound 42ELH85, 2-(4-Methoxyphenyl)-N-(4-chlorbenzyl)-N-(1-ethylpiperidin-4-yl)acetamide], for which, in series [1], the “MED (minimum effective dose in vivo)” value is “≦10 mg/kg”. Besides, the “Percent Efficacy” value at 5-HT2A receptor (Table 4 of Example 137) came out at 118%.
In the same order, the values of `COc1ccc(CC(=O)N(Cc2ccc(Cl)cc2)C2CCN(C3CCCC3)CC2)cc1` [Compound 42ELH91, 2-(4-Methoxyphenyl)-N-(4-chlorbenzyl)-N-(1-cyclopentylpiperidin-4-yl)acetamide] are over 10 mg/kg and 108%.
For the compound `COc1ccc(CC(=O)N(Cc2ccc(C)cc2)C2CCN(C)CC2)cc1` [Compound 50ELH27, 2-(4-Methoxyphenyl)-N-(4-methylbenzyl)-N-(1-methylpiperidin-4-yl)acetamide], in series [1] (setting [4]), the “effect on DOI-induced head-twitches” value is given as “dose-related decrease” and the “minimum effective dose against DOI-induced head-twitches” value worked out at 1 mg/kg. Besides, in series [1] (mice, DOI 2.5 mg/kg i.p., higher doses, s.c.), the “effect on head twitch behavior at higher doses” value is listed as “completely eliminating head twitch behavior”. Besides, the “MED (minimum effective dose in vivo)” value in series [1] amounted to 1 mg/kg. Besides, the “effect on startle magnitude” value in series [2] (rats, 3-way repeated measures ANOVA) is given as “significant effect of pretreatment”. The “restoration of PPI in DOI-treated rats” value in series [2] (rats, DOI 0.5 mg/kg s.c., AC-90179 s.c., risperidone 1.0 mg/kg i.p.) is recorded as “effective in restoring this disruption especially at the higher doses; also recorded: significant effects”. For the same compound, the “effect on PPI on its own” value in series [2] (saline (vehicle)-treated rats, AC-90179 s.c., risperidone 1.0 mg/kg i.p.) is recorded as “did not affect PPI on its own; also recorded: no effect”. Also, the “effect on hyperactivity induced by dizocilpine” value in series [3] (0.3-10 mg/kg, s.c., 10 min, dizocilpine 0.3 mg/kg i.p.) is recorded as “attenuated”. Besides, the “dose that reduced spontaneous locomotor activity” value in series [3] (compound alone, s.c., only at the highest dose tested) is listed as 30 mg/kg. Further, the “minimum effective dose against dizocilpine” value in series [3] (hyperactivity induced by dizocilpine 0.3 mg/kg i.p., s.c.) was 1 mg/kg.
The compound `Cc1ccc(CN(C(=O)Cc2ccc(N(C)C)cc2)C2CCN(C)CC2)cc1` [Compound 57MBT70-6D, N-((4-methylphenyl)methyl)-N-(1-methylpiperidin-4-yl)-2-(4-(N,N-dimethylamino)phenyl)acetamide hydrochloride] had an IC50 at 5-HT2A receptor (Table 4 of Example 137) of 10 nM.
Take `C[C@]12N[C@H](Cc3ccccc31)c1ccccc12` [Dizocilpine, dizocilpine, reference compound]: in series [3] (0.3 mg/kg), the “distance traveled (average)” value came to 2625 cm.
In the case of `C[C@H](N)Cc1ccccc1` [d-amphetamine, reference compound], in series [3] (3.0 mg/kg), the “distance traveled (average)” value was 3367 cm.
With “N-(2-Phenylethyl)-N-(piperidin-4-yl)-4-methoxyphenylmethylacetamide [Compound 26HCH80-2]”, the “pIC50 (average)” value against 5-HT2A receptor (Table 1) came out at 7.78. The “Efficacy (average)” value on 5-HT2A receptor (percent maximal repression compared to ritanserin, Table 1) is given as 89%.
